Experimental data reported in US20140329863A1 (priority 2011, published 2014).
In brackets after ≈: the same amount, converted by molar mass.

Test system: PrP^Sc in dividing ScN2a-cl3 cells
Assay: not given
Type: cell-based, mouse
Conditions: read-out: EC50 (nM): ELISA; dividing ScN2a-cl3 cells

Q: Which EC50 does the source give for `O=C(Nc1nc(-c2ccc(-c3ccccc3)cc2)cs1)C1CC1` [IND-0030410] here?
A: The EC50 was 317 nM.

Q: Which EC50 does the source give for `CCOc1ccc(NC(=O)c2cc3ccccc3cc2O)cc1` [IND-0031751] here?
A: The EC50 was 156 nM.

Q: With `COc1ccc(C(=O)Nc2ccc(-c3csc(C)n3)cc2)cc1` [IND-0033145] as the molecule, how does the EC50 read?
A: The EC50 was 412 nM.

Q: With `CN(C)CCNc1nc(-c2ccc(Cl)cc2)nc2ccccc12` [IND-0034921] as the molecule, how does the EC50 read?
A: The EC50 was 3690 nM.

Q: With `COc1cccc(Nc2nc(N)c3ccccc3n2)c1` [IND-0035916] as the molecule, how does the EC50 read?
A: The EC50 was 4020 nM.

Q: With `COc1cc(N)c(-c2ccc3cc(OC)c(OC)cc3n2)cc1OC` [IND-0044355] as the molecule, how does the EC50 read?
A: Its EC50 is 2140 nM.

Q: With `Cn1c(=N)n(CC(=O)c2ccc(Br)cc2)c2ccccc21` [IND-0044723] as the molecule, how does the EC50 read?
A: Its EC50 is 1980 nM.

Q: Which EC50 does the source give for `CN1CCN(c2ccc(Nc3ccnc4cc(Cl)ccc34)cc2)CC1` [IND-0045193] here?
A: The EC50 was 1220 nM.

Q: Which EC50 does the source give for `COc1cc(CNCCO)cc(Br)c1OCc1ccccc1Cl` [IND-0046380] here?
A: Its EC50 is 5080 nM.

Same assay, conditions: read-out: Potency (nM) ELISA (EC50); PrP^Sc ELISA, dividing ScN2a-cl3 cells

Q: Which EC50 does the source give for `O=C(Nc1nc(-c2ccc(-c3ccccc3)cc2)cs1)C1CC1` [IND-0030410] here?
A: The EC50 was 317 nM.

Q: Which EC50 does the source give for `CCOc1ccc(NC(=O)c2cc3ccccc3cc2O)cc1` [IND-0031751] here?
A: Its EC50 is 156 nM.

Q: With `COc1ccc(C(=O)Nc2ccc(-c3csc(C)n3)cc2)cc1` [IND-0033145] as the molecule, how does the EC50 read?
A: Its EC50 is 412 nM.

Q: Which EC50 does the source give for `CN(C)CCNc1nc(-c2ccc(Cl)cc2)nc2ccccc12` [IND-0034921] here?
A: The EC50 was 3690 nM.

Q: For `COc1cccc(Nc2nc(N)c3ccccc3n2)c1` [IND-0035916], which EC50 is on record?
A: The EC50 was 4020 nM.

Q: Which EC50 does the source give for `COc1cc(N)c(-c2ccc3cc(OC)c(OC)cc3n2)cc1OC` [IND-0044355] here?
A: Its EC50 is 2140 nM.

Q: With `Cn1c(=N)n(CC(=O)c2ccc(Br)cc2)c2ccccc21` [IND-0044723] as the molecule, how does the EC50 read?
A: Its EC50 is 1980 nM.

Q: With `CN1CCN(c2ccc(Nc3ccnc4cc(Cl)ccc34)cc2)CC1` [IND-0045193] as the molecule, how does the EC50 read?
A: The EC50 was 1220 nM.

Q: With `COc1cc(CNCCO)cc(Br)c1OCc1ccccc1Cl` [IND-0046380] as the molecule, how does the EC50 read?
A: The EC50 was 5080 nM.

Test system: PrP^Sc in ScN2a-cl3 cells
Assay: not given
Type: cell-based, mouse
Conditions: read-out: EC50 (nM): Western; Western immunoblots, ScN2a-cl3 cells

Q: For `O=C(Nc1nc(-c2ccc(-c3ccccc3)cc2)cs1)C1CC1` [IND-0030410], which EC50 is on record?
A: The EC50 was 194 nM.

Q: For `CCOc1ccc(NC(=O)c2cc3ccccc3cc2O)cc1` [IND-0031751], which EC50 is on record?
A: The EC50 was 42 nM.

Q: For `COc1ccc(C(=O)Nc2ccc(-c3csc(C)n3)cc2)cc1` [IND-0033145], which EC50 is on record?
A: The EC50 was 161 nM.

Q: For `CN(C)CCNc1nc(-c2ccc(Cl)cc2)nc2ccccc12` [IND-0034921], which EC50 is on record?
A: Its EC50 is 2010 nM.

Q: Which EC50 does the source give for `COc1cccc(Nc2nc(N)c3ccccc3n2)c1` [IND-0035916] here?
A: The EC50 was 5990 nM.

Q: For `COc1cc(N)c(-c2ccc3cc(OC)c(OC)cc3n2)cc1OC` [IND-0044355], which EC50 is on record?
A: Its EC50 is 1830 nM.

Q: For `Cn1c(=N)n(CC(=O)c2ccc(Br)cc2)c2ccccc21` [IND-0044723], which EC50 is on record?
A: The EC50 was 1450 nM.

Q: With `CN1CCN(c2ccc(Nc3ccnc4cc(Cl)ccc34)cc2)CC1` [IND-0045193] as the molecule, how does the EC50 read?
A: The EC50 was 2070 nM.

Q: Which EC50 does the source give for `COc1cc(CNCCO)cc(Br)c1OCc1ccccc1Cl` [IND-0046380] here?
A: The EC50 was 2150 nM.

Same assay, conditions: read-out: Potency (nM) Western (EC50); Western immunoblots, dividing ScN2a-cl3 cells

Q: For `O=C(Nc1nc(-c2ccc(-c3ccccc3)cc2)cs1)C1CC1` [IND-0030410], which EC50 is on record?
A: Its EC50 is 194 nM.

Q: For `CCOc1ccc(NC(=O)c2cc3ccccc3cc2O)cc1` [IND-0031751], which EC50 is on record?
A: The EC50 was 42 nM.

Q: With `COc1ccc(C(=O)Nc2ccc(-c3csc(C)n3)cc2)cc1` [IND-0033145] as the molecule, how does the EC50 read?
A: The EC50 was 161 nM.

Q: For `CN(C)CCNc1nc(-c2ccc(Cl)cc2)nc2ccccc12` [IND-0034921], which EC50 is on record?
A: The EC50 was 2010 nM.

Q: For `COc1cccc(Nc2nc(N)c3ccccc3n2)c1` [IND-0035916], which EC50 is on record?
A: Its EC50 is 5990 nM.

Q: For `COc1cc(N)c(-c2ccc3cc(OC)c(OC)cc3n2)cc1OC` [IND-0044355], which EC50 is on record?
A: The EC50 was 1830 nM.

Q: Which EC50 does the source give for `Cn1c(=N)n(CC(=O)c2ccc(Br)cc2)c2ccccc21` [IND-0044723] here?
A: Its EC50 is 1450 nM.

Q: With `CN1CCN(c2ccc(Nc3ccnc4cc(Cl)ccc34)cc2)CC1` [IND-0045193] as the molecule, how does the EC50 read?
A: The EC50 was 2070 nM.

Q: For `COc1cc(CNCCO)cc(Br)c1OCc1ccccc1Cl` [IND-0046380], which EC50 is on record?
A: The EC50 was 2150 nM.

Test system: N2a-cl3 cells
Assay: not given
Conditions: mouse

Q: For `O=C(Nc1nc(-c2ccc(-c3ccccc3)cc2)cs1)C1CC1` [IND-0030410], which “EC50 (nM): Calcein (LC50 values from calcein assays)” value (“EC50 (nM): Calcein” for short) is on record?
A: The value was “MW: 320.4 EC50 (nM): ELISA: 317 Calcein: >10,000 Western: 194”.

Q: For `CCOc1ccc(NC(=O)c2cc3ccccc3cc2O)cc1` [IND-0031751], which “EC50 (nM): Calcein” value is on record?
A: Its value is “MW: 307.3 EC50 (nM): ELISA: 156 Calcein: >10,000 Western: 42”.

Q: With `COc1ccc(C(=O)Nc2ccc(-c3csc(C)n3)cc2)cc1` [IND-0033145] as the molecule, how does the “EC50 (nM): Calcein” value read?
A: The value was “MW: 324.4 EC50 (nM): ELISA: 412 Calcein: >10,000 Western: 161”.

Q: With `CN(C)CCNc1nc(-c2ccc(Cl)cc2)nc2ccccc12` [IND-0034921] as the molecule, how does the “EC50 (nM): Calcein” value read?
A: The value was “MW: 326.8 EC50 (nM): ELISA: 3693 Calcein: >10,000 Western: 2009”.

Q: For `COc1cccc(Nc2nc(N)c3ccccc3n2)c1` [IND-0035916], which “EC50 (nM): Calcein” value is on record?
A: The value was “MW: 266.3 EC50 (nM): ELISA: 4023 Calcein: >10,000 Western: 5987”.

Q: With `COc1cc(N)c(-c2ccc3cc(OC)c(OC)cc3n2)cc1OC` [IND-0044355] as the molecule, how does the “EC50 (nM): Calcein” value read?
A: Its value is “MW: 340.4 EC50 (nM): ELISA: 2143 Calcein: >10,000 Western: 1833”.

Q: With `Cn1c(=N)n(CC(=O)c2ccc(Br)cc2)c2ccccc21` [IND-0044723] as the molecule, how does the “EC50 (nM): Calcein” value read?
A: Its value is “MW: 344.2 EC50 (nM): ELISA: 1983 Calcein: >10,000 Western: 1453”.

Q: With `CN1CCN(c2ccc(Nc3ccnc4cc(Cl)ccc34)cc2)CC1` [IND-0045193] as the molecule, how does the “EC50 (nM): Calcein” value read?
A: The value was “MW: 352.9 EC50 (nM): ELISA: 1220 Calcein: >10,000 Western: 2073”.

Q: With `COc1cc(CNCCO)cc(Br)c1OCc1ccccc1Cl` [IND-0046380] as the molecule, how does the “EC50 (nM): Calcein” value read?
A: The value was “MW: 400.7 EC50 (nM): ELISA: 5080 Calcein: >10,000 Western: 2148”.

Test system: not listed separately
Assay: in vitro
Conditions: mouse

Q: With `O=C(Nc1nc(-c2ccc(-c3ccccc3)cc2)cs1)C1CC1` [IND-0030410] as the molecule, how does the CC50 read?
A: Its CC50 is over 10 µM.

Q: Which CC50 does the source give for `CCOc1ccc(NC(=O)c2cc3ccccc3cc2O)cc1` [IND-0031751] here?
A: The CC50 was over 10 µM.

Q: Which CC50 does the source give for `COc1ccc(C(=O)Nc2ccc(-c3csc(C)n3)cc2)cc1` [IND-0033145] here?
A: Its CC50 is over 10 µM.

Q: Which CC50 does the source give for `CN(C)CCNc1nc(-c2ccc(Cl)cc2)nc2ccccc12` [IND-0034921] here?
A: Its CC50 is over 10 µM.

Q: Which CC50 does the source give for `COc1cccc(Nc2nc(N)c3ccccc3n2)c1` [IND-0035916] here?
A: Its CC50 is over 10 µM.

Q: For `COc1cc(N)c(-c2ccc3cc(OC)c(OC)cc3n2)cc1OC` [IND-0044355], which CC50 is on record?
A: Its CC50 is over 10 µM.

Q: With `Cn1c(=N)n(CC(=O)c2ccc(Br)cc2)c2ccccc21` [IND-0044723] as the molecule, how does the CC50 read?
A: The CC50 was over 10 µM.

Q: Which CC50 does the source give for `CN1CCN(c2ccc(Nc3ccnc4cc(Cl)ccc34)cc2)CC1` [IND-0045193] here?
A: The CC50 was over 10 µM.

Q: Which CC50 does the source give for `COc1cc(CNCCO)cc(Br)c1OCc1ccccc1Cl` [IND-0046380] here?
A: Its CC50 is over 10 µM.

Test system: not listed separately
Assay: physchem
Conditions: pH 1.2, simulated gastric fluid

Q: Which solubility does the source give for `O=C(Nc1nc(-c2ccc(-c3ccccc3)cc2)cs1)C1CC1` [IND-0030410] here?
A: The solubility was 17.7 µM (≈ 5.67 µg/mL).

Same assay, conditions: pH 7.4, aqueous buffer

Q: For `O=C(Nc1nc(-c2ccc(-c3ccccc3)cc2)cs1)C1CC1` [IND-0030410], which solubility is on record?
A: Its solubility is 12.7 µM (≈ 4.07 µg/mL).

Test system: not listed separately
Assay: Single-dose pharmacokinetics in FVB mice (oral gavage, IV)
Conditions: single oral dose 10 mg/kg, FVB mice

Q: For `CN1CCN(c2ccc(Nc3ccnc4cc(Cl)ccc34)cc2)CC1` [IND-0045193], which “Brain/Plasma AUClast Ratio” value is on record?
A: The value was 4.72.

Same assay, conditions: single oral dose 10 mg/kg, two FVB mice, brain

Q: For `CN1CCN(c2ccc(Nc3ccnc4cc(Cl)ccc34)cc2)CC1` [IND-0045193], which “AUClast ± SD, Brain” value is on record?
A: The value was 7.36 ± 0.78 µM·h.

Same assay, conditions: single oral dose 10 mg/kg, two FVB mice, plasma

Q: For `CN1CCN(c2ccc(Nc3ccnc4cc(Cl)ccc34)cc2)CC1` [IND-0045193], which “AUClast ± SD, Plasma” value is on record?
A: The value was 1.56 ± 0.31 µM·h.
